Our source for the melting point values is a melting point compilation (Tetko et al.; mined from patent text by program, amines drawn as free bases though some values may be those of a salt).

By melting point is commonly meant the temperature, or range, at which the solid turns liquid.

A value given as a limit tells only on which side of the number the result lay.

Take `CC1=C(Cc2cccc(Br)c2)C(=O)C2C=CC=CC2C1=O` (configuration not stated): the melting point lay in the range of 108 to 109 °C.

Molecule `Cc1cc(-n2ccnc2)c2cccc(OCc3c(Cl)ccc(S(=O)(=O)N4CCCC[C@H]4C(=O)O)c3Cl)c2n1` yielded a melting point of 208 °C.

The molecule `Cc1ccc(N2N=C3c4cc(C)sc4CCCC3CC2=O)cc1` (configuration not stated) displayed a melting point of 117 to 119 °C.

Molecule `COc1ccc(CNc2ncnc3c2ncn3C2OC(c3nnn[nH]3)C(O)C2O)cc1` (configuration not stated) gave a melting point of 210 to 211 °C.

For `Cc1ccc(CN2C(=O)[C@@H](NC(=O)Cc3ccccc3)[C@H]2CO)c(C)c1` (relative stereo), the melting point was in the range of 152 to 154 °C.

`CCOC(=O)[C@H]1O[C@@H]1C(=O)N[C@H](COCc1ccsc1)CC(C)C` came in with a melting point of 61 to 62.5 °C.

Regarding `CC(C)(C)COCCOc1ccc(OCC(O)CNCCNC(=O)N2CCOCC2)cc1` (configuration not stated), the melting point was determined as 90 °C.

In turn, `CCCOc1ccc(S(=O)(=O)N2CCNCC2)cc1-c1cc2c(=O)n(C)c(=O)n(CCC)c2[nH]1` gave a melting point of 237 °C.

With `COC(=O)C(=CNC1CC1)C(=O)c1cc(F)c(Cl)cc1OC`, the melting point is 128 to 132 °C.

`CCOC(=O)C(Cc1cccc2cccnc12)(NC(=O)CC)C(=O)OCC` had a melting point of 80 to 100 °C.

Consider `NC(=O)C1C=Cc2ccccc2N1C(=O)c1ccc(F)cc1` (configuration not stated), for which the melting point lay in the range of 149 to 151 °C.

Molecule `CC1(O)CC(=O)OC(CCc2ccc(OCc3ccccc3)cc2)C1Br` (configuration not stated) displayed a melting point of 155 to 160 °C.

As for `O=c1oc2cc(O)c(O)cc2c2c1CN(CCN1CCOCC1)CC2`, the melting point lay in the range of 299 to 302 °C.

Take `Cc1cc2c(-c3ccccc3)c(C(=O)O)oc(=O)c2cc1C`: the melting point was in the range of 265 to 268 °C.

The molecule `O=c1nc(-c2cccc(-c3cccs3)n2)sc2ccccc12` had a melting point of 222 to 223 °C.

`CC(=O)OC1CCC2(C)C(=CCC3C2CCC2(C)C(C(C)C(O)CCC(C)(C)C)CCC32)C1` (configuration not stated) registered a melting point of 185 to 187 °C.

In turn, `O=C1CNc2cccc(Oc3cc(-c4ccc(C(F)(F)F)cc4)ncn3)c2N1` showed a melting point of 305 °C.

As for `CCn1nc(C)c2c1C(=O)Nc1ccccc1N2C(=O)CN1CCN(C)CC1`, the melting point was in the range of 145 to 146 °C.

On to `CCCC1=C(C#N)C(c2cccc(C(F)(F)F)c2Cl)c2c[nH]nc2N1` (configuration not stated), for which the melting point is above 250 °C.

On to `Cc1oc(-c2ccccc2)nc1COc1ccc(I)cn1`, for which the melting point fell in the range of 129 to 130 °C.

`Cc1cccc(NC(=O)OCCS(C)(=O)=O)c1CNc1cccn2c(C)c(C)nc12` yielded a melting point of 161 to 162 °C.

`CN1CCC(C2c3sccc3C=Cn3ncnc32)CC1` (configuration not stated) had a melting point of 137 °C.

The molecule `Nc1ncccc1-c1nc2cc(Br)cnc2n1-c1ccc(NC(=O)c2ccccc2)cc1` gave a melting point of 242 to 244 °C.

Consider `CCOc1cc2ncc(C#N)c(Nc3ccc4c(c3)C(=O)NC4=O)c2cc1OCC`, for which the melting point lay in the range of 248 to 251 °C.

Turning to `COCC(=O)C1CCC2C3CCC4CC(=O)CCC4(C)C3CCC12C` (configuration not stated), the melting point came out at 156 °C.

Consider `NC(=O)c1cnn2c1NCCC2c1cccc(C(F)(F)F)c1` (configuration not stated), for which the melting point fell in the range of 152 to 154 °C.

In turn, `CS(=O)(=O)c1ccccc1-c1ccn[nH]c1=O` yielded a melting point of 123 to 125 °C.

As for `C#CCc1c(Cl)nc(N)nc1Cl`, the melting point was 211 to 212 °C.

Molecule `Cc1cc(Nc2c(C#N)cnc3cc(Br)ccc23)ccc1OCc1ccccn1` yielded a melting point of 238 to 241 °C.

`CN(C)S(=O)(=O)Oc1c(Cl)cc(C(C)(C)C)cc1CNC(=O)OC(C)(C)C` returned a melting point of 122 to 123 °C.

Turning to `NC(=O)c1c(C(=O)O)cnn1-c1ccc(Cl)cc1Cl`, the melting point lay within 239 to 240 °C.

On to `CCN(CC)CCCNC(=O)Cn1ncc(-c2ccc(C#N)cc2)c1-c1ccccc1`, for which the melting point was 100 to 101 °C.

Regarding `O=S1(=O)CCCc2[nH]c3ccccc3c2CC1`, the melting point was 207 to 208 °C.

For the molecule `NC(Cc1cccc(O)c1)c1ccccc1` (configuration not stated), the melting point was 179 to 181 °C.

`CCCC(Oc1ccc(Cl)c(C)c1)C(=O)NCc1ccccc1` (configuration not stated): the melting point fell in the range of 75 to 78 °C.

Turning to `CCOC(=O)c1cn(-c2cnsn2)c2nc(Cl)c(F)cc2c1=O`, the melting point is 175 to 178 °C.

In turn, `OC(c1ccc(F)cc1)(c1ccc(F)cc1)C1CCNCC1` came in with a melting point of 160 °C.

Molecule `COc1cc(Nc2c(C#N)cnc3cc(-c4ccc(CN5CCCCC5)cc4)sc23)c(Cl)cc1Cl` came in with a melting point of 218 to 220 °C.

Regarding `O=[N+]([O-])c1ccc2sc(NCCO)nc2c1`, the melting point amounted to 183 °C.

`COc1c(C)cc(C(=O)O)cc1-c1ccccc1` had a melting point of 165 to 168 °C.

In turn, `CNC1CCN(c2c(F)cc3c(=O)c(C(=O)O)cn(C4COC4)c3c2F)C1` (configuration not stated) returned a melting point of 252 to 255 °C.

In the case of `NC(=O)c1cccc(-n2c(=O)n(Cc3cccnc3)c(=O)c3cccnc32)c1`, the melting point is 219 to 220 °C.

The molecule `CC1CCn2c(nc(-c3ccncc3)cc2=O)N1` (configuration not stated) showed a melting point of 245 to 247 °C.

Take `COC(=O)c1nc(C)c(F)c(N)c1Cl`: the melting point is 113 to 114 °C.

Consider `CCCCC(=O)c1c(-c2ccc3c(Br)c(O)ccc3c2)oc2ccccc12`, for which the melting point is 171 to 172 °C.

For the molecule `CCCCCN1CCC(n2nc(-c3c(-c4ccccc4)nn4ccccc34)ccc2=O)CC1`, the melting point was found to be 106 °C.

In turn, `O=C(CCc1ccc2ccccc2c1)CC(=O)CCc1ccc2ccccc2c1` displayed a melting point of 123 to 125 °C.

In turn, `CSc1nnc(-c2ccnc(Nc3cccc(C(F)(F)F)c3)c2)o1` gave a melting point of 189 to 190 °C.

For `[N-]=[N+]=N[C@@H]1CN2C(=O)N(c3cc(Cl)nc(Cl)c3)C(=O)[C@@]2(Cc2ccc(OC(F)(F)F)cc2)C1`, the melting point is 140 °C.

In turn, `COc1cccc2c1[nH]c(=O)n2C(=O)Oc1ccccc1` came in with a melting point of 204 to 205 °C.

The molecule `CC1=C(C(=O)OCc2ccccc2)C(c2ccccc2C(F)(F)F)c2c(ccnc2OC(C)C)N1` (configuration not stated) came in with a melting point of 131 °C.

The molecule `COc1cc2c(cc1OC)CN(CCCCc1ccc(NC(=O)c3cccc4c(=O)cc(-c5ccccc5)[nH]c34)cc1)CC2` yielded a melting point of 204 °C.

Regarding `O=S1(=O)CNc2cccc3cccc1c23`, the melting point lay within 206 to 207 °C.

Turning to `CCN1c2ncc(CCc3ccc(C(=O)OC)cc3)cc2C(=O)N(C)c2cccnc21`, the melting point lay within 172 to 173 °C.

Take `N#Cc1ccc(NCCc2nc3cc(Cl)ccc3c3nn(-c4ccccc4)cc23)nc1`: the melting point fell in the range of 207 to 208 °C.

`COc1cn(-c2ccc(C3CC3)cc2F)nc(-c2ccnn2-c2ccccc2)c1=O` yielded a melting point of 140 to 142 °C.

Turning to `COc1ccc2c(n1)C1(CO2)C(=O)N(Cc2csc(C(C)C)n2)c2ccccc21` (configuration not stated), the melting point fell in the range of 136 to 138 °C.

`N#Cc1cccc(NCCC(=O)O)c1` displayed a melting point of 119 °C.

For `NC1CCCC(NC(=O)c2ccc(-c3[nH]nc4c3C(=O)c3c(NC(=O)NN5CCOCC5)cccc3-4)s2)C1` (configuration not stated), the melting point is above 300 °C.

In turn, `NC(=O)C1(Nc2ccccc2)CCN([C@H]2CCc3ccccc32)CC1` showed a melting point of 194 to 195 °C.

The molecule `CC(C)=CCC/C(C)=C/COCC(=O)c1cc(C(C)(C)C)c(O)c(C(C)(C)C)c1` returned a melting point of 50 °C.

`COc1cc(C(C)=NO)ccc1OCCCN1CCC(c2noc3cc(F)ccc23)CC1` registered a melting point of 168 to 170 °C.
